Values of other authors, collected in patent publication US20170209576A1, “DELIVERY COMPOSITIONS AND METHODS” (REGENTS OF THE UNIVERSITY OF MINNESOTA, priority 2014, published 2017).

What was measured:
[1] = aqueous solution
[2] = micropipette techniques

Compound | critical micelle concentration (CMC) [1] | rate of adsorption of monomers into the outer bilayer leaflet [2] | pKa of terminal amine group
CCCCCCCCCCCCCCCC(=O)OC[C@@H](O)COP(=O)([O-])OCC[N+](C)(C)C [MPPC, monopalmitoyl phosphatidyl choline] | 4 µM | 0.2 s⁻¹ | –
CCCCCCCCCCCCCCCC(=O)OCC(COP(=O)(O)OCCN)OC(=O)CCCCCCCCCCCCCCC (stereo not shown) [DPPE, dipalmitoylphosphatidylethanolamine] | – | – | 9.8
1,2-Distearoyl-sn-glycero-3-phosphoethanolamine (DSPE)-PEG^2000 [DSPE-PEG^2000] | 5.8 µM | – | –
